How the values were obtained:
Type in all cases: in vivo
Alopecurus myosuroides = assay: Indoor herbicide activity determination, Seed Treatment; pre-emergence (soil spray); details: Dosage 240 g a.i./ha
In short: (§1)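 Herbicide was applied to soil before weed emergence, 24 h after sowing, by tower spraying. Plants grew at constant temperature with illumination, and fresh weight compared with untreated pots gave % inhibition after 21 days.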

Alopecurus japonicus = assay: as above; details: for Herbicidal activities, Alopecurus japonicus (inhibition rate class): Dosage 240 g a.i./ha
In short: as §1

Leptochloa chinensis = assay: as above; details: for Herbicidal activities, Leptochloa chinensis (inhibition rate class): Dosage 240 g a.i./ha
In short: as §1

Eleusine indica = assay: as above
In short: as §1

Lolium multiflorum = assay: as above; details: Dosage 240 g a.i./ha
In short: as §1

Cyperus iria [1] = assay: Indoor herbicide activity determination, post-emergence (stem and leaf spray at 2-4 leaf stage); details: 504 h, determined 21 days later, read-out: Inhibition rate of fresh weight, Cyperus iria; for inhibition at 60 g/ha: 60 g a.i./ha; for inhibition at 30 g/ha: 30 g a.i./ha
Excerpt: (§2) The testing method for herbicide activity of the compound of the present invention was as follows:
(§3) Post-emergence: an appropriate quantity of seeds of gramineous weeds (Echinochloa crusgalli, Eleusine indica, Digitaria sanguinalis, Alopecurus japonicus, Beckmannia syzigachne, Leptochloa chinensis, Polypogon fugax, Alopecurus aequalis, Lolium multiflorum, Poa annua, Aegilops tauschii, Avena fatua, Alopecurus myosuroides, Alopecurus japonicus and Alopecurus aequalis), broad-leaved weeds (Eclipta prostrata, Amaranthus retroflexus, Rorippa indica, Malachium aquaticum, Veronica polita, Conyza canadensis, Sesbania cannabina, Sagittariatrifolia and Schoenoplectiella juncoides), and Cyperus iria were sown in plastic pots having a diameter of 7 cm and holes at the bottom and filled with nutrient soil (sandy soil, pH 6.1, organic matter 1%) respectively, the seeds were covered with an appropriate amount of soil after being sown, then the soil was wetted with water from the bottom, the seeds were cultured in a constant-temperature illuminated culture room until a 2-4 leaf stage, and stems and leaves underwent spray treatment. After the treatment, the test materials were placed in a laboratory and cultured in the constant-temperature illuminated culture room after the liquid was naturally dry in the shade, and results were determined 21 days later. Inhibition rate of fresh weight % = (1−(fresh weight of treated plants)/(fresh weight of control plants)) × 100% [formula]

Digitaria sanguinalis [2] = assay: as above; details: 504 h, determined 21 days later, read-out: Inhibition rate of fresh weight, Digitaria sanguinalis; for inhibition at 60 g/ha: 60 g a.i./ha; for inhibition at 30 g/ha: 30 g a.i./ha
Excerpt: as §2, §3

Eclipta prostrata [3] = assay: as above; details: 504 h, determined 21 days later, read-out: Inhibition rate of fresh weight, Eclipta prostrata; for inhibition at 60 g/ha: 60 g a.i./ha; for inhibition at 30 g/ha: 30 g a.i./ha
Excerpt: as §2, §3

Cyperus iria [4] = assay: Indoor herbicide activity determination, Seed Treatment; pre-emergence (soil spray); details: 60 g a.i./ha, read-out: Herbicidal activities (inhibition rate) Cyperus iria
In short: as §1

Digitaria sanguinalis [5] = assay: as above; details: 60 g a.i./ha, read-out: Herbicidal activities (inhibition rate) Digitaria sanguinalis
In short: as §1

Aegilops tauschii = assay: as above; details: 60 g a.i./ha, read-out: Herbicidal activities (inhibition rate) Aegilops tauschii
In short: as §1

Eclipta prostrata [6] = assay: as above; details: 60 g a.i./ha, read-out: Herbicidal activities (inhibition rate) Eclipta prostrata
In short: as §1

| SMILES | Herbicidal activities, Alopecurus myosuroides (inhibition rate class) (Alopecurus myosuroides) | Herbicidal activities, Alopecurus japonicus (inhibition rate class) (Alopecurus japonicus) | Herbicidal activities, Leptochloa chinensis (inhibition rate class) (Leptochloa chinensis) | Herbicidal activities, Lolium multiflorum (inhibition rate class) (Lolium multiflorum) | inhibition at 60 g/ha (Cyperus iria [1]) [%] | inhibition at 60 g/ha (Digitaria sanguinalis [2]) [%] | inhibition at 60 g/ha (Eclipta prostrata [3]) [%] | inhibition at 30 g/ha (Cyperus iria [1]) [%] | inhibition at 30 g/ha (Digitaria sanguinalis [2]) [%] | inhibition at 30 g/ha (Eclipta prostrata [3]) [%] | other results |
| --- | --- | --- | --- | --- | --- | --- | --- | --- | --- | --- | --- |
| COC(=O)[C@H]1C[C@@H](NC(=O)C2(C)CC(c3cc(F)cc(F)c3)=NO2)C1 (mixture of isomers) [I-113] | A (A indicates that the inhibition rate was greater than or equal to 80% to 100%) | A (A indicates that the inhibition rate was greater than or equal to 80% to 100%) | A (A indicates that the inhibition rate was greater than or equal to 80% to 100%) | A (A indicates that the inhibition rate was greater than or equal to 80% to 100%) | 80 to 100 | 80 to 100 | 60 to 80 | – | – | – | Herbicidal activities, Eleusine indica (inhibition rate class) (Eleusine indica; Dosage 240 g a.i./ha): A (A indicates that the inhibition rate was greater than or equal to 80% to 100%) |
| C=C[C@]1(C(=O)N[C@H]2C=C[C@@H](C(=O)O)C2)CC(c2cc(F)cc(F)c2)=NO1 [CK1, reference compound] | – | – | – | – | – | – | – | 60 to 80 | 60 to 80 | < 20 | – |
| C=C[C@]1(C(=O)N[C@H]2C=C[C@@H](C(=O)OC)C2)CC(c2cc(F)cc(F)c2)=NO1 [CK2, reference compound] | – | – | – | – | – | – | – | 60 to 80 | 60 to 80 | 20 to 40 | – |
| C=CC1(C(=O)N[C@H]2C[C@@H](C(=O)OC)C2)CC(c2cc(Cl)cc(C(F)(F)F)c2)=NO1 (mixture of isomers) [I-55] | A (A indicates that the inhibition rate was greater than or equal to 80% to 100%) | A (A indicates that the inhibition rate was greater than or equal to 80% to 100%) | A (A indicates that the inhibition rate was greater than or equal to 80% to 100%) | A (A indicates that the inhibition rate was greater than or equal to 80% to 100%) | 80 to 100 | 60 to 80 | 60 to 80 | – | – | – | – |
| C=C[C@]1(C(=O)N[C@H]2C=C[C@@H](C(=O)OC)C2)CC(c2cc(Cl)cc(C(F)(F)F)c2)=NO1 [I-477] | – | – | – | – | – | – | – | 80 to 100 | 60 to 80 | – | inhibition at 60 g/ha (Cyperus iria [4]): 60 to 80%; inhibition at 60 g/ha (Digitaria sanguinalis [5]): 60 to 80%; inhibition at 60 g/ha (Aegilops tauschii): 80 to 100%; Herbicidal activity (inhibition rate class), Alopecurus japonicus (Alopecurus japonicus; Dosage 120 g a.i./ha): B (B indicates that the inhibition rate was greater than or equal to 60% to less than 80%); Herbicidal activity (inhibition rate class), Leptochloa chinensis (Leptochloa chinensis; Dosage 120 g a.i./ha): A (A indicates that the inhibition rate was greater than or equal to 80% to 100%); Herbicidal activity (inhibition rate class), Eleusine indica (Eleusine indica; Dosage 120 g a.i./ha): A (A indicates that the inhibition rate was greater than or equal to 80% to 100%); inhibition at 60 g/ha (Eclipta prostrata [6]): 40 to 60% |

— patent EP4722201A1, “3-PHENYLISOXAZOLINE-5-CARBOXAMIDE COMPOUND, AND PREPARATION METHOD THEREFOR, HERBICIDAL COMPOSITION THEREOF AND USE THEREOF” (Jiangsu Flag Chemical Industry Co., Ltd, priority 2023, dated 2024)
